Assay results published in publication PMC12615753, “Glutathione as a taste modulator: molecular mechanisms of interaction with umami and sweet taste receptors” (Food Chemistry: Molecular Sciences, 2025).

Target: T1, hTAS1R1 R151A/rTAS1R3 (Homo sapiens, UniProt Q7RTX1, R151A)
T1 construct: UniProtKB number Q7RTX1–1); expressed in transfected cells; host or cells: HEK293T/17 (ATCC CRL-11268)
T1 sequence (Q7RTX1 21-841 R151A): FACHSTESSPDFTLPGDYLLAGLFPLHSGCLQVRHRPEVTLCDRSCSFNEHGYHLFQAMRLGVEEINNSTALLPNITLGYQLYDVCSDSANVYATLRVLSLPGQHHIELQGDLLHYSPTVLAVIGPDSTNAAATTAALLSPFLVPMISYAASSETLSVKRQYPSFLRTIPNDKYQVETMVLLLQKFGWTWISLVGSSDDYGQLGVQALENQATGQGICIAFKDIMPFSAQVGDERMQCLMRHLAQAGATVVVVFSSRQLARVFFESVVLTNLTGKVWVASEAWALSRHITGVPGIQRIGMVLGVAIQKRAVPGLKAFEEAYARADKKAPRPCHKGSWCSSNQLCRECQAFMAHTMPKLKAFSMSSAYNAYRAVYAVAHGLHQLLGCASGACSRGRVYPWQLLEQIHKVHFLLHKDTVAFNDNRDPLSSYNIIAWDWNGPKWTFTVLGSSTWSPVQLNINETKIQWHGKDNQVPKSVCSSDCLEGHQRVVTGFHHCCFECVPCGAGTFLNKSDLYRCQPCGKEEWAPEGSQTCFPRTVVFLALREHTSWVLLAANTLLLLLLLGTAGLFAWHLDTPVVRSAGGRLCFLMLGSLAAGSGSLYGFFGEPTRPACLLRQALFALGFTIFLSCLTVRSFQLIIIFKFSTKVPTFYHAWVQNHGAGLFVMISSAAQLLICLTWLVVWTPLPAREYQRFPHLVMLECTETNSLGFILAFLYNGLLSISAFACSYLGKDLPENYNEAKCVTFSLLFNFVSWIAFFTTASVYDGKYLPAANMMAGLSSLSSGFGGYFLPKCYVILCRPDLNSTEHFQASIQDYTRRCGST
T1 sequence (Q923K1 21-858 partner): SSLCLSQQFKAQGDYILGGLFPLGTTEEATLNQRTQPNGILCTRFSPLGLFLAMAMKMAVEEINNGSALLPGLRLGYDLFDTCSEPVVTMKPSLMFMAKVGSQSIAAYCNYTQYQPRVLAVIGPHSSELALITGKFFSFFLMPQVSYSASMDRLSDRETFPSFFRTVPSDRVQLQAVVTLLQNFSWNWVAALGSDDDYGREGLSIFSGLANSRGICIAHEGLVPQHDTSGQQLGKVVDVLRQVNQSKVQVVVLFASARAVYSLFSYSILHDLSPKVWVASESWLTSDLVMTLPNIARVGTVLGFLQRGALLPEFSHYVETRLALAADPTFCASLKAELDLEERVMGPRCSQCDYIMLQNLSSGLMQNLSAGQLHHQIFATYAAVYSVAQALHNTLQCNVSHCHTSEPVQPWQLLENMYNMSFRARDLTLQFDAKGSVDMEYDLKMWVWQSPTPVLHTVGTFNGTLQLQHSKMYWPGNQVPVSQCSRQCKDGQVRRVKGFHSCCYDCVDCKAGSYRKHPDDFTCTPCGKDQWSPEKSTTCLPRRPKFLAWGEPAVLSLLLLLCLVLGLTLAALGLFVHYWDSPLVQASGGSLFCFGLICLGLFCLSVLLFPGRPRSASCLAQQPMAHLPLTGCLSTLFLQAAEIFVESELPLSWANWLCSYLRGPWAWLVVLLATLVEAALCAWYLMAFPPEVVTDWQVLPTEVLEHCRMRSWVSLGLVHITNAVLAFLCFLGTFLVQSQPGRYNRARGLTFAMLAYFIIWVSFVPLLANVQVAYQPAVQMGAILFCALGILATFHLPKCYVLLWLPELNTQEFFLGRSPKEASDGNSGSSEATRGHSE
Experiment: Calcium assay, hTAS1R1 mutant co-expressed with rTAS1R3
Type: cell-based, rat
Description: Chimeric Gα proteins, such as Gα16Gust44, Gα16Gi3 or Gα15i2, are widely used in the functional expression of TAS1R receptors ([Backes et al., 2015]; [Suess et al., 2015]; [Toda et al., 2021], [Toda et al., 2013], [Toda et al., 2018]; [Zhang et al., 2008]). Chimeric Gα15i2 (([Toda et al., 2013]), Supplementary data) was generated by replacing the last five residues of the C-terminal tail of rat Gα15i2 (EINLL) (UniProt number G3V6N8; https://www.uniprot.org/uniprot/) with the counterpart sequence from human GNAI2 (DCGLF) (UniProt number P04899-1) and cloning into the pcDNA3.1/Hygro vector (Invitrogen, Thermo Fisher Scientific, Illkirch, France) between the HindIII and NotI restriction sites, resulting in the plasmid pcDNA3.1-Gα15i2. Chimeric Gα16Gust44 construct have already been reported ([Raliou et al., 2011]). Briefly, Gα16Gust44 was generated by replacing the C-terminal of Gα16 with the C-terminal 44 residues of gustducin. As previously described, hTAS1R1 was amplified from human fungiform papillae cDNA and cloned and inserted into pcDNA3 (Invitrogen), generating pcDNA3-TAS1R1-WT (wild-type) ([Raliou et al., 2011]). […] The cDNA coding region of rTAS1R3 was synthesized with optimized-codon usage for human expression (Genewiz) and was cloned and inserted into the mammalian pcDNA4/myc-HisA (Invitrogen) expression vector between the EcoRI and NotI restriction sites, resulting in the plasmid pcDNA4-rTAS1R3. […] The sequence integrity of all the plasmid constructs was verified via automated DNA sequencing (Genewiz).
The hTAS1R1 mutants were co-expressed with the rTAS1R3 subunit in HEK293 cells. […] As a control, the functionality of the mutated receptors was checked after stimulation with S807 (Fig. S8), which interacts with TAS1R1-TMD ([Zhang et al., 2008]).

Row | response to the agonist alone, vs WT (R151A) | SMILES | EC50 [µM] | effect of the added compound (1 mM) on the response to L-Glu (R151A) | Max ∆F/F0 (R151A, GSH) | R1 = mutant EC50/WT EC50 (R151A, GSH)
1 | – | N[C@@H](CCC(=O)N[C@@H](CS)C(=O)NCC(=O)O)C(=O)O [GSH, γ-L-glutamyl-L-cysteinyl-glycine] | 2590 ± 1590 | did not affect | 0.31 ± 0.08 | 1.0
2 | strongly affected | CCCC(CCC)NC(=O)c1ccc2c(c1)OCO2 [S807, N-(heptan-4-yl)benzo[d][1,3]dioxole-5-carboxamide, reference compound] | – | – | – | –
